Assay results published in US9725445B2, “Cycloalkyl nitrile pyrazolo pyridones as Janus kinase inhibitors” (Merck Sharp & Dohme Corp., priority 2013, dated 2017).
Read-outs that look alike come from different tables or passages of the source.

Key:
JAK1 = JAK1 (Homo sapiens (Human), UniProt P23458); test: Jak biochemical HTRF assay, JAK1; settings: recombinant GST-tagged catalytic domain
JAK2 = JAK2 (Homo sapiens (Human), UniProt O60674); test: Jak biochemical HTRF assay, JAK2; settings: recombinant GST-tagged catalytic domain
Chain of JAK2 (O60674 849-1124): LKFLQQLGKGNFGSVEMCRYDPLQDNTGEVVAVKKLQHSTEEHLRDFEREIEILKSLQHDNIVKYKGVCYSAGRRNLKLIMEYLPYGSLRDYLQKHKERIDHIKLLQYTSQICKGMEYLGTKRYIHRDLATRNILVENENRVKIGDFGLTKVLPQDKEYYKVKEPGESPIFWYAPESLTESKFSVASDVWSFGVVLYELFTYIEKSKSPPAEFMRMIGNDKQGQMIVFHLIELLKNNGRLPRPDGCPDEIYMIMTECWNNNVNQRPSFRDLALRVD
Procedure: Jak Biochemical HTRF Assay Protocol
The ability of compounds to inhibit the activity of JAK1, JAK2, JAK3, and Tyk2 was measured using a recombinant purified GST-tagged catalytic domain for each enzyme (Invitrogen JAK1 #M4290, JAK2 #M4290, JAK3 #M4290, Tyk2 #M4290) in an HTRF format biochemical assay. […] The basic assay protocol is as follows: First, 250 nL of diluted compounds in DMSO were dispensed into the wells of a dry 384-well Black plate (Greiner #781076) using a Labcyte Echo 555 acoustic dispenser. Subsequent reagent additions employed an Agilent Bravo. […] After equilibration, 2 μL of 10×ATP in 1× assay buffer was added to initiate the kinase reaction and the plates were shaken and then incubated at room temperature for 120 minutes. […] Plates were shaken and centrifuged and then incubated 60 minutes at room temperature and then read on a Perkin Elmer Envision (λex=337 nm, λem=665 and 615 nm, TRF delay time=20 μs). HTRF signal=10,000*665 nm reading/615 nm reading. After normalization to untreated controls, the percent inhibition of the HTRF signal at each compound concentration was calculated. The plot of percent inhibition versus the log of compound concentration was fit with a 4-parameter dose response equation to calculate IC50 values.
Final Reaction Conditions were:
Examples of the instant invention were evaluated in JAK1 and JAK2 in vitro binding assays.

[1] = HTRF biochemical assay, read-out: JAK1 IC50
[2] = HTRF biochemical assay, read-out: JAK2 IC50

Chain of JAK1 (P23458 875-1153): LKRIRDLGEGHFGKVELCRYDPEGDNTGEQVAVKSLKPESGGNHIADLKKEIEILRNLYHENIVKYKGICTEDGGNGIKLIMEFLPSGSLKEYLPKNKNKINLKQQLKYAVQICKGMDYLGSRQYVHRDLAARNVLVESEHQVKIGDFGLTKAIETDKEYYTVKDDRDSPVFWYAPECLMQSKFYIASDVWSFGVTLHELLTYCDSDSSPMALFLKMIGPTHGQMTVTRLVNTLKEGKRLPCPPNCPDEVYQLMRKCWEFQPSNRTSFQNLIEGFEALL

SMILES | IC50 (JAK1; [1]) [nM] | IC50 (JAK2; [2]) [nM] | IC50 (JAK1; JAK1 IC50, HTRF biochemical assay) [nM] | IC50 (JAK2; JAK2 IC50, HTRF biochemical assay) [nM]
COCCC(C)(C)N1Cc2cc(Nc3nn([C@H]4CCCC[C@@H]4C#N)c4cc[nH]c(=O)c34)ccc2S1(=O)=O [Example 3-161, (1S,2S)-2-(3-{[2-(3-methoxy-1,1-dimethylpropyl)-1,1-dioxido-2,3-dihydro-1,2-benzisothiazol-5-yl]amino}-4-oxo-4,5-dihydro-1H-pyrazolo[4,3-c]pyridin-1-yl)cyclohexanecarbonitrile] | 0.067 | 0.15 |  | 
N#C[C@H]1CCC[C@@H]1n1nc(Nc2ccc3c(c2)CN(CC(F)(F)F)S3(=O)=O)c2c(=O)[nH]ccc21 [Example 3-101, (1S,2S)-2-(3-{[1,1-dioxido-2-(2,2,2-trifluoroethyl)-2,3-dihydro-1,2-benzisothiazol-5-yl]amino}-4-oxo-4,5-dihydro-1H-pyrazolo[4,3-c]pyridin-1-yl)cyclopentanecarbonitrile] | 0.056 | 0.5 |  | 
N#C[C@H]1CCCC[C@@H]1n1nc(Nc2ccc3c(c2)CN(C2CCCC2)C3=O)c2c(=O)[nH]ccc21 [Example 3-154, (1S,2S)-2-{3-[(2-cyclopentyl-1-oxo-2,3-dihydro-1H-isoindol-5-yl)amino]-4-oxo-4,5-dihydro-1H-pyrazolo[4,3-c]pyridin-1-yl}cyclohexanecarbonitrile] | 0.056 | 0.45 |  | 
N#C[C@H]1C[C@H](N2CCC2)CC[C@@H]1n1nc(Nc2ccc(OC(F)(F)F)cc2)c2c(=O)[nH]ccc21 [Example 5-23, (1S,2S,5R)-5-(azetidin-1-yl)-2-(4-oxo-3-((4-(trifluoromethoxy)phenyl)amino)-4,5-dihydro-1H-pyrazolo[4,3-c]pyridin-1-yl)cyclohexanecarbonitrile] | 0.88 | 31 |  | 
N#CCC1(n2nc(Nc3ccc(C(N)C(F)F)cc3)c3c(=O)[nH]ccc32)CCCCC1 (single isomer, unassigned) [Example 9-1, (S or R)-2-(1-(3-(4-(1-Amino-2,2-difluoroethyl)phenylamino)-4-oxo-4,5-dihydro-1H-pyrazolo[4,3-c]pyridin-1-yl)cyclohexyl)acetonitrile] | 0.19 | 0.47 |  | 
CC(C)(C)OC(=O)N1[C@@H]2CC[C@H]1C[C@@H](c1ccc(Nc3nn([C@H]4CCCC[C@@H]4C#N)c4cc[nH]c(=O)c34)cc1)C2 (single isomer, unassigned) [Example 3-165] |  |  | 2.6 | 7.9
N#C[C@H]1CCCC[C@@H]1n1nc(Nc2ccc(C(O)C(F)(F)F)cc2)c2c(=O)[nH]ccc21 (single isomer, unassigned) [Example 3-9, (1S,2S)-2-[4-oxo-3-({4-[(1S or 1R)-2,2,2-trifluoro-1-hydroxyethyl]phenyl}amino)-4,5-dihydro-1H-pyrazolo[4,3-c]pyridin-1-yl]cyclohexanecarbonitrile] | 0.081 | 0.54 |  | 
CN(C)[C@H]1CC[C@H](n2nc(Nc3ccc(OC(F)(F)F)cc3)c3c(=O)[nH]ccc32)[C@@H](C#N)C1 [Example 5-26, (1S,2S,5S)-5-(dimethylamino)-2-(4-oxo-3-((4-(trifluoromethoxy)phenyl)amino)-4,5-dihydro-1H-pyrazolo[4,3-c]pyridin-1-yl)cyclohexanecarbonitrile] | 0.33 | 7 |  | 
N#C[C@H]1CCCC[C@@H]1n1nc(Nc2ccc3c(c2)CN(C(=O)c2cnc(N4CCCCC4)cn2)C3)c2c(=O)[nH]ccc21 [Example 3-158, (1S,2S)-2-[4-oxo-3-({2-[(5-piperidin-1-ylpyrazin-2-yl)carbonyl]-2,3-dihydro-1H-isoindol-5-yl}amino)-4,5-dihydro-1H-pyrazolo[4,3-c]pyridin-1-yl]cyclohexanecarbonitrile] | 0.98 | 1.5 |  | 
CC(C)(C)OC(=O)NCc1cc(F)cc(Nc2nn([C@H]3CCCC[C@@H]3C#N)c3cc[nH]c(=O)c23)c1 [Example 3-36, tert-butyl [3-({1-[(1S,25)-2-cyanocyclohexyl]-4-oxo-4,5-dihydro-1H-pyrazolo[4,3-c]pyridin-3-yl}amino)-5-fluorobenzyl]carbamate] | 2.3 | 3.8 |  | 
CS(=O)(=O)c1ccc(Nc2nn([C@H]3CCCC[C@@H]3C#N)c3cc[nH]c(=O)c23)cc1CN [Example 6-4, (1S,2S)-2-(3-((3-(aminomethyl)-4-(methylsulfonyl)phenyl)amino)-4-oxo-4,5-dihydro-1H-pyrazolo[4,3-c]pyridin-1-yl)cyclohexanecarbonitrile] | 1 | 2.9 |  | 

More lines, in order of falling IC50 (JAK1; [1]), values ahead:

IC50 (JAK1; [1]) [nM] | IC50 (JAK2; [2]) [nM] | SMILES | IC50 (JAK1; JAK1 IC50, HTRF biochemical assay) [nM] | IC50 (JAK2; JAK2 IC50, HTRF biochemical assay) [nM]
14 | 30 | Cn1ccc(NC(=O)Cc2cccc(Nc3nn([C@@H]4CCCC[C@H]4C#N)c4cc[nH]c(=O)c34)c2)n1 [Example 3-15, 2-[3-({1-[(1R,2R)-2-cyanocyclohexyl]-4-oxo-4,5-dihydro-1H-pyrazolo[4,3-c]pyridin-3-yl}amino)phenyl]-N-(1-methyl-1H-pyrazol-3-yl)acetamide] |  | 
1.7 | 31 | N#C[C@H]1C[C@@H](N2CCC2)CC[C@@H]1n1nc(Nc2ccc(Cl)c(F)c2)c2c(=O)[nH]ccc21 [Example 5-4, (1S,2S,5S)-5-(azetidin-1-yl)-2-(3-((4-chloro-3-fluorophenyl)amino)-4-oxo-4,5-dihydro-1H-pyrazolo[4,3-c]pyridin-1-yl)cyclohexanecarbonitrile] |  | 
0.45 | 0.88 | N#C[C@H]1CCCC[C@@H]1n1nc(Nc2ccc3c(c2)CNCC3)c2c(=O)[nH]ccc21 [Example 3-157, (1S,2S)-2-[4-oxo-3-(1,2,3,4-tetrahydroisoquinolin-7-ylamino)-4,5-dihydro-1H-pyrazolo[4,3-c]pyridin-1-yl]cyclohexanecarbonitrile] |  | 
0.33 | 2.5 | CC(C)(C)OC(=O)CN1Cc2ccc(Nc3nn([C@H]4CCCC[C@@H]4C#N)c4cc[nH]c(=O)c34)cc2C1 [Example 3-164, tert-butyl [5-({1-[(1S,2S)-2-cyanocyclohexyl]-4-oxo-4,5-dihydro-1H-pyrazolo[4,3-c]pyridin-3-yl}amino)-1,3-dihydro-2H-isoindol-2-yl]acetate] |  | 
0.32 | 0.86 | COC(C)(c1ccc(Nc2nn([C@H]3CCCC[C@@H]3C#N)c3cc[nH]c(=O)c23)cc1)C(F)(F)F (single isomer, unassigned) [Example 3-125, (1S,2S)-2-(4-oxo-3-((4-((R or S)-1,1,1-trifluoro-2-methoxypropan-2-yl)phenyl)amino)-4,5-dihydro-1H-pyrazolo[4,3-c]pyridin-1-yl)cyclohexanecarbonitrile] |  | 
0.29 | 2 | N#C[C@H]1CCCC[C@@H]1n1nc(Nc2ccc(CNC(=O)c3ncccn3)cc2)c2c(=O)[nH]ccc21 [Example 3-30, N-[4-({1-[(1S,2S)-2-cyanocyclohexyl]-4-oxo-4,5-dihydro-1H-pyrazolo[4,3-c]pyridin-3-yl}amino)benzyl]pyrimidine-2-carboxamide] |  | 
0.22 | 0.72 | CC1(c2ccc(Nc3nn([C@H]4CCCC[C@@H]4C#N)c4cc[nH]c(=O)c34)cc2)COC1 [Example 15-13, (1S,2S)-2-(3-{[4-(3-methyloxetan-3-yl)phenyl]amino}-4-oxo-4,5-dihydro-1H-pyrazolo[4,3-c]pyridin-1-yl)cyclohexanecarbonitrile] |  | 
0.14 | 0.24 | CC(C)(c1ccc(Nc2nn([C@H]3CCCC[C@@H]3C#N)c3cc[nH]c(=O)c23)cc1)n1nccn1 [Example 15-29, (1S,2S)-2-[3-({4-[1-methyl-1-(2H-1,2,3-triazol-2-yl)ethyl]phenyl}amino)-4-oxo-4,5-dihydro-1H-pyrazolo[4,3-c]pyridin-1-yl]cyclohexanecarbonitrile] |  | 
0.11 | 0.85 | N#C[C@H]1CCCC[C@@H]1n1nc(Nc2ccc(S(N)(=O)=O)cc2)c2c(=O)[nH]ccc21 [Example 3-7, 4-({1-[(1S,2S)-2-cyanocyclohexyl]-4-oxo-4,5-dihydro-1H-pyrazolo[4,3-c]pyridin-3-yl}amino)benzenesulfonamide] |  | 
0.082 | 0.44 | N#C[C@H]1CCC[C@@H]1n1nc(Nc2ccc3c(c2)CN(CC(F)(F)F)C3=O)c2c(=O)[nH]ccc21 [Example 3-97, (1S,2S)-2-(4-oxo-3-{[1-oxo-2-(2,2,2-trifluoroethyl)-2,3-dihydro-1H-isoindol-5-yl]amino}-4,5-dihydro-1H-pyrazolo[4,3-c]pyridin-1-yl)cyclopentanecarbonitrile] |  | 
0.056 | 0.28 | CC1(C)Cc2cc(Nc3nn([C@H]4CCCC[C@@H]4C#N)c4cc[nH]c(=O)c34)ccc2S1(=O)=O [Example 21-1, (1S,2S)-2-(3-((2,2-Dimethyl-1,1-dioxido-2,3-dihydrobenzo[b]thiophen-5-yl)amino)-4-oxo-4,5-dihydro-1H-pyrazolo[4,3-c]pyridin-1-yl)cyclohexanecarbonitrile] |  | 
0.049 | 0.19 | COCC(C)(C)N1Cc2cc(Nc3nn([C@H]4CCCC[C@@H]4C#N)c4cc[nH]c(=O)c34)ccc2S1(=O)=O [Example 3-160, (1S,2S)-2-(3-{[2-(2-methoxy-1,1-dimethylethyl)-1,1-dioxido-2,3-dihydro-1,2-benzisothiazol-5-yl]amino}-4-oxo-4,5-dihydro-1H-pyrazolo[4,3-c]pyridin-1-yl)cyclohexanecarbonitrile] |  | 
